Assay results from patent US20170333391A1, “METHOD FOR DELAYING THE ONSET OF PULMONARY FIBROSIS OR TREATING PULMONARY FIBROSIS” (EVERFRONT BIOTECH INC., priority 2016, published 2017).

Assays:
BMP-7 protein = BMP-7 protein expression in TGF-β1-induced NHLF, western blotting (2-2); assay type: cell-based, human; settings: TGF-β1-only control group = 1
Experimental: Normal Human lung fibroblasts (NHLF) were seeded into 6 cm culture dishes at a density of 2×10^5 cells/dish, comprising a control group and six experimental groups (7 dishes in total). The cells were cultured until the next day, and then the mediums were removed. Each group was respectively treated under the following conditions to conduct follow-up experiments: • (1) Positive control group: cells were cultured in a FGM-2 medium containing 1% serum and TGF-β1 (5 ng/ml) for 36 hours; • (2) Group I: cells were firstly cultured in a FGM-2 medium containing 1% serum and TGF-β1 (5 ng/ml) for 12 hours, and then compound (1) was added into the medium to provide a final concentration of 15 μg/ml; thereafter, the cells were cultured for another 24 hours; • (3) Group II: cells were firstly cultured in a FGM-2 medium containing 1% serum and TGF-β1 (5 ng/ml) for 12 hours, and then compound (1) was added into the medium to provide a final concentration of 25 μg/ml; thereafter, the cells were cultured for another 24 hours; • (4) Group III: cells were firstly cultured in a FGM-2 medium containing 1% serum and TGF-β1 (5 ng/ml) for 12 hours, and then compound (1) was added into the medium to provide a final concentration of 35 μg/ml; thereafter, the cells were cultured for another 24 hours; • (5) Group IV: cells were firstly cultured in a FGM-2 medium containing 1% serum and TGF-β1 (5 ng/ml) for 12 hours, and then the Pirfenidone was added into the medium to provide a final concentration of 100 μg/ml; thereafter, the cells were cultured for another 24 hours; • (6) Group V: cells were firstly cultured in a FGM-2 medium containing 1% serum and TGF-β1 (5 ng/ml) for 12 hours, and then the Pirfenidone was added into the medium to provide a final concentration of 250 μg/ml; thereafter, the cells were cultured for another 24 hours; and • (7) Group VI: cells were firstly cultured in a FGM-2 medium containing 1% serum and TGF-β1 (5 ng/ml) for 12 hours, and then the Pirfenidone was added into the medium to provide a final concentration of 500 μg/ml; thereafter, the cells were cultured for another 24 hours.
Thereafter, the proteins in the cells of each group were extracted, and the expressions of type I collagen, BMP-7 protein and TGF-β protein in the NHLF cells of each group were measured with western blotting. The results of the control group served as the basis for calculating the relative expression levels of the other groups.

IL-6 = IL-6 mRNA in mouse pulmonary tissue, RT-PCR; assay type: in vivo, mice; settings: Bleomycin sulfate, normal control = 1, oil group = 3.26
Excerpt: (§1) 24 C57B/L6 mice (age: four weeks) were separated into four groups (6 mice in each group). […]
Then, for another portion of ground samples of each group, the total RNAs were extracted using an RNeasy Mini Kit. The QuantiTect Reverse Transcription Kit was used to conduct reverse transcription on the total RNA to obtain the cDNA. […]

[1] = tested on: C57B/L6 mice injected with Bleomycin sulfate (inducer of pulmonary fibrosis); experiment: Pulmonary function by unrestrained whole body plethysmography in Bleomycin sulfate mice; assay type: in vivo; settings: compared to oil group; for accumulated volume (AV): p<0.01; for expiratory time (Te) / relaxation time (RT): p<0.05
Experimental: (§2) 24 C57B/L6 mice (age: four weeks) were separated into four groups (6 mice in each group). Each group was respectively treated under the following conditions to conduct follow-up experiments: • (1) Control group (mice without pulmonary fibrosis; i.e., normal mice): 50 μl of PBS was administrated to each mouse by intratracheal injection, and then the mice were fed for 30 days; • (2) Oil group: 0.6 U/50 μl of Bleomycin sulfate (dissolved in PBS) was administrated to each mouse by intratracheal injection, and then 100 μl of olive oil was orally administrated to each mouse every day for 30 days; • (3) Low-dose group: 0.6 U/50 μl of Bleomycin sulfate (dissolved in PBS) was administrated to each mouse by intratracheal injection, and then compound (1) (10 mg/kg-body weight, prepared with olive oil to provide a final volume of 100 μl) was orally administrated to each mouse every day for 30 days; and • (4) High-dose group: 0.6 U/50 μl of Bleomycin sulfate (dissolved in PBS) was administrated to each mouse by intratracheal injection, and then compound (1) (50 mg/kg-body weight, prepared with olive oil to provide a final volume of 100 μl) was orally administrated to each mouse every day for 30 days.
In this experiment, the pulmonary functions of the mice from each group of Example 5 were evaluated with Unrestrained Whole Body Plethysmography (WBP). The inspiratory and expiratory flow rates of mice were calculated by measuring changes in the air inside and outside of a specific chamber, and respiratory parameters can be obtained therefrom. The respiratory parameters comprise the peak inspiratory flow (PIF) (i.e., the maximal volume being inspired in a period of time), peak expiratory flow (PEF) (i.e., the maximal volume being expired in a period of time), inspiratory time (Ti) (i.e., the average time of inspiration in a period of time), expiratory time (Te) (i.e., the average time of expiration in a period of time), respiratory rate (RR) (i.e., the numbers of breath per minute), accumulated volume (AV) (i.e., the average volume of air being breathed per minute), tidal volume (TV) (i.e., the average volume of air being expired per time), relaxation time (RT) (i.e., the average time needed for raising the pressure of air hatch to 40% of the maximal value), etc.

smad3 protein = smad3 protein in mouse pulmonary tissue, western blotting; assay type: in vivo, mice; settings: compared to oil group
Experimental: as §1
The samples of mice pulmonary tissue provided by Example 7 and preserved at −20° C. were removed from storage, and then ground in liquid nitrogen. […] The expressions of TGF-β protein, smad3 protein and surfactant C in the samples of each group were measured with western blotting, wherein the actin served as an internal control.

[2] = tested on: C57B/L6 mice injected with Bleomycin sulfate (inducer of pulmonary fibrosis); experiment: Lung tissue slice observation (H&E stain) in Bleomycin sulfate mice; assay type: in vivo; settings: compared to oil group
Experimental: as §2
After completing the measurement of the pulmonary function in Example 6, the mice were sacrificed. Pulmonary tissue samples were taken from the mice, and separated into two groups (each group comprised samples from the control group, oil group, low-dose group and high-dose group). One of the two groups was preserved at −20° C. for the follow-up experiment, and the other group was analyzed by hematoxylin-sosin stain (H&E stain).

[3] = High-dose group, compound (1) 50 mg/kg orally daily 30 days
[4] = Low-dose group, compound (1) 10 mg/kg orally daily 30 days

Compound: CCCC=C1OC(=O)c2ccccc21 [compound (1)]
- Relative expression level (fold) BMP-7 protein (BMP-7 protein; Group I: TGF-β1 5 ng/ml 12 h, then compound (1) 15 μg/ml 24 h): 1.57 fold
- Relative expression level (fold) BMP-7 protein (BMP-7 protein; Group II: TGF-β1 5 ng/ml 12 h, then compound (1) 25 μg/ml 24 h): 1.80 fold
- Relative expression level (fold) BMP-7 protein (BMP-7 protein; Group III: TGF-β1 5 ng/ml 12 h, then compound (1) 35 μg/ml 24 h): 1.68 fold
- Relative expression level (fold) IL-6 (IL-6; High-dose group: mRNA in pulmonary tissue, compound (1) 50 mg/kg-body weight orally every day for 30 days): 0.53 fold
- Relative expression level (fold) IL-6 (IL-6; Low-dose group: mRNA in pulmonary tissue, compound (1) 10 mg/kg-body weight orally every day for 30 days): 1.36 fold
- other respiratory parameters [1, 3]: closer to the control group
- accumulated volume (AV) [1, 3]: significantly increased
- expiratory time (Te) [1, 3]: significantly decreased
- relaxation time (RT) [1, 3]: significantly decreased
- other respiratory parameters [1, 4]: closer to the control group
- accumulated volume (AV) [1, 4]: significantly increased
- expiratory time (Te) [1, 4]: significantly decreased
- relaxation time (RT) [1, 4]: significantly decreased
- expression level of smad3 protein in pulmonary tissue (smad3 protein; [3]): significantly lower
- expression level of smad3 protein in pulmonary tissue (smad3 protein; [4]): significantly lower
- alveolar wall tissue thickness (H&E stain) [2, 3]: significantly thinner
- level of abnormal infiltration of pulmonary cells (H&E stain) [2, 3]: significantly less
- alveolar wall tissue thickness (H&E stain) [2, 4]: significantly thinner
- level of abnormal infiltration of pulmonary cells (H&E stain) [2, 4]: significantly less
